Series [1] concerns the target T1, 5-HT transporter (Rattus norvegicus, UniProt P31652).
T1 construct: from tissue; host or cells: rat brain (medulla and pons), synaptosomes, P2 fraction
Kind of series: 5-HT uptake inhibition, synaptosomes from rat brain (medulla and pons). It counts as biochemical. The essentials: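 Freshly isolated rat brain synaptosomes (P2 fraction): hypothalamus for NA uptake, medulla/pons for 5-HT uptake. Uptake of [3H]-NA (7.5 min) or [3H]-5-HT (5 min) at room temperature under O2, stopped by filtration over GF/B. Retained radioactivity counted by scintillation.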

The target in series [2] is T2, NA transporter (Rattus norvegicus, UniProt Q9WTR4).
T2 construct: from tissue; host or cells: rat brain (hypothalamus), synaptosomes, P2 fraction
T2 sequence (Q9WTR4 1-597): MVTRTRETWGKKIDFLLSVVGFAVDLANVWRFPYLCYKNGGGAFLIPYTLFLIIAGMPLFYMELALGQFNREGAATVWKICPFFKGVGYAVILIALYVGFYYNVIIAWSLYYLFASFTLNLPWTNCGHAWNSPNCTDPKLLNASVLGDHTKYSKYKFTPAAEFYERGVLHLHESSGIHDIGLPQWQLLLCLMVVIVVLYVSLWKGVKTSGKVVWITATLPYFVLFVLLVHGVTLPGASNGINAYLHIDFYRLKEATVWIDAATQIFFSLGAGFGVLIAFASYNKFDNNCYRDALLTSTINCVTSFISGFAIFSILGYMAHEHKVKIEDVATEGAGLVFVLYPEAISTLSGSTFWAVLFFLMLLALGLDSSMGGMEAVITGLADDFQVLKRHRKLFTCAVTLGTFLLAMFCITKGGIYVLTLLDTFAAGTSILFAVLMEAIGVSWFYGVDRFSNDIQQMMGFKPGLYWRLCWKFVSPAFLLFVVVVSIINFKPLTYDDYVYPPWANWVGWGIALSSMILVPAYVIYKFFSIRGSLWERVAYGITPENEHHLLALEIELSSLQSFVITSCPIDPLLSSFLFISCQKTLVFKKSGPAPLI
Put plainly: Noradrenalin (NA) uptake inhibition, synaptosomes from rat brain (hypothalamus). It counts as biochemical. The text has this:
b) Method for Determining Noradrenalin and 5-HT Uptake Inhibition:
Synaptosomes from rat brain regions are freshly isolated for in vitro studies, as described in the publication “The isolation of nerve endings from brain” by E. G. Gray and V. P. Whittaker, J. Anatomy 96, pages 79-88, 1962. The corresponding literature description is hereby introduced as a reference and is deemed to be part of the disclosure.
The tissue (hypothalamus for the determination of noradrenalin uptake inhibition and medulla and pons for the determination of 5-HT uptake inhibition) is homogenised in ice-cooled 0.32 M sucrose (100 mg of tissue/1 mL) in a glass homogeniser with Teflon pestle using five complete up and down strokes at 840 revolutions/minute.
The homogenate is centrifuged at 4° C. for 10 minutes at 1000 g. After subsequent centrifugation at 17000 g for 55 minutes, the synaptosomes (P2 fraction) are obtained, which are resuspended in 0.32 M […] (0.5 mL/100 mg of original weight).
The particular uptake is measured in a 96-well microtitre plate. The volume is 250 μL and the incubation proceeds at room temperature (approx. 20-25° C.) under an O2 atmosphere.
The incubation time is 7.5 minutes for [^3H]-NA and 5 minutes for [^3H]-5-HT. The 96 samples are then filtered through a Unifilter GF/B® microtitre plate (Packard) and washed with 200 mL of incubated buffer using a “Brabdel MPXRI-96T Cell-Harvester”. The Unifilter GF/B plate is dried for 1 hour at 55° C. The plate is then sealed with a Back Seal® (Packard) and 35 μL of scintillation fluid are added per well (Ultima Gold®, Packard). After sealing with a top Seal® (Packard) and establishing an equilibrium (around 5 hours), radioactivity is determined in a “Trilux 1450 Microbeta” (Wallac).
The quantity of protein used in the above determination corresponds to the values known from the literature, as for example described in “Protein measurement with the folin phenol reagent”, Lowry et al., J. Biol. Chem., 193, 265-275, 1951.
A detailed description of the method may additionally be found in the literature, for example in M. Ch. Frink, H.-H. Hennies, W. Engelberger, M. Haurand and B. Wilffert (1996) Arzneim.-Forsch./Drug Res. 46 (III), 11, 1029-1036.
The following characteristics were determined for the NA or 5-HT transporter: […]

Each structure is given as a SMILES string. Where a name gives a salt, the structure may show the parent alone.

T1 sequence (P31652 whole entry): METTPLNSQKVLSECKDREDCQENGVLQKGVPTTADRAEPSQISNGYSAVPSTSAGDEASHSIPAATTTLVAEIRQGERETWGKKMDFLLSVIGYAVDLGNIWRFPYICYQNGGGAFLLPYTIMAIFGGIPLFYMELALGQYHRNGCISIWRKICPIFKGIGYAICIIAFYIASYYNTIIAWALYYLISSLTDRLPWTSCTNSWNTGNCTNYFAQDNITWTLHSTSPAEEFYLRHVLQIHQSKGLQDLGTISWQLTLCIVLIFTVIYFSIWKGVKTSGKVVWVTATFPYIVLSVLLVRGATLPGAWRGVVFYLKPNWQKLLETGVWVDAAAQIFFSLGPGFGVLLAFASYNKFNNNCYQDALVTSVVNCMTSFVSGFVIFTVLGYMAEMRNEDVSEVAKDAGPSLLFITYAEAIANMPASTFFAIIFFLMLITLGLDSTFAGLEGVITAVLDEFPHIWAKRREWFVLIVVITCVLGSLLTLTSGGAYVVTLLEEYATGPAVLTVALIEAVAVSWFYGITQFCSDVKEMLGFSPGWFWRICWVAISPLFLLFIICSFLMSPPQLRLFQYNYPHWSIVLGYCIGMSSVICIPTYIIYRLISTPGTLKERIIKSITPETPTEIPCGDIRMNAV

The term inhibition denotes the drop in the measured response relative to a control, in per cent. Broadly, the melting point is the temperature, or range, at which the solid turns liquid. `CC(=O)c1ccc(N2CCN(C(=O)c3noc4c3CN(S(=O)(=O)c3ccc(C)cc3)CC4)CC2)cc1` [Example 86, 1-(4-{4-[5-(Toluene-4-sulfonyl)-4,5,6,7-tetrahydro-isoxazolo[4,5-c]pyridine-3-carbonyl]-piperazin-1-yl}-phenyl)-ethanone] came in with a melting point of 187.8 °C. Besides, in series [1], the inhibition at 10 µM worked out at 86%.
Turning to `O=C(c1noc2c1CN(S(=O)(=O)c1ccc(Cl)c(Cl)c1)CC2)N1CCN(c2nccs2)CC1` [Example 140, (5-(3,4-dichlorophenylsulfonyl)-4,5,6,7-tetrahydroisoxazolo[4,5-c]pyridin-3-yl)(4-(thiazol-2-yl)piperazin-1-yl)methanone], the inhibition at 10 µM in series [2] was 46%; in series [1], 47%.
As to `O=C(c1noc2c1CN(S(=O)(=O)c1cc(Cl)ccc1Cl)CC2)N(CCc1ccccc1)Cc1ccccc1` [Example 59, 5-(2,5-dichloro-benzenesulfonyl)-4,5,6,7-tetrahydro-isoxazolo[4,5-c]pyridine-3-carboxylic acid benzyl-phenethyl amide], the inhibition at 10 µM in series [2] turned out to be 79%; in series [1], 71%.
As to `Cc1cc(C)c(S(=O)(=O)N2CCc3onc(C(=O)N4CCC(CCN5CCCC5)CC4)c3C2)c(C)c1` [Example 146, (5-(mesitylsulfonyl)-4,5,6,7-tetrahydroisoxazolo[4,5-c]pyridin-3-yl)(4-(2-(pyrrolidin-1-yl)ethyl)piperidin-1-yl)methanone], the figures for the inhibition at 10 µM in series [2] and in series [1] were 42% and 53%, respectively.
On to `O=C(NCCN1CCCC1)c1noc2c1CN(C(=O)COc1cccc(Cl)c1)CC2` [Example 155, 5-(2-(3-chlorophenoxy)acetyl)-N-(2-(pyrrolidin-1-yl)ethyl)-4,5,6,7-tetrahydroisoxazolo[4,5-c]pyridine-3-carboxamide], for which the inhibition at 10 µM in series [2] was 70%; in series [1] it was 92%.
The matching figures for `COc1ccc(NC(=O)N2CCc3onc(C(=O)NCc4ccccc4)c3C2)cc1` [Example 151, N^3-benzyl-N^5-(4-methoxyphenyl)-6,7-dihydroisoxazolo[4,5-c]pyridine-3,5(4H)-dicarboxamide]: 34% and 36%.
The matching figures for `CC(NC(=O)N1CCc2onc(C(=O)NCc3ccccc3)c2C1)c1ccccc1` (centres unmarked) [Example 150, N^3-benzyl-N^5-(1-phenylethyl)-6,7-dihydroisoxazolo[4,5-c]pyridine-3,5(4H)-dicarboxamide]: 27% and 58%.
Turning to `N#Cc1cccc(NC(=O)N2CCc3onc(C(=O)NCc4cccs4)c3C2)c1` [Example 12, 6,7-dihydro-4H-isoxazolo[4,5-c]pyridine-3,5-dicarboxylic acid 5-[(3-cyano-phenyl) amide]3-[(thiophen-2-ylmethyl) amide]], the “NA Uptake (rat), 10 μM, % inhibition” value in series [2] came out at 46%. Besides, in series [1], the “5-HT uptake (rat), 10 μM, % inhibition” value is 51%.
Regarding `COc1ccc(CNC(=O)c2noc3c2CN(S(=O)(=O)c2ccccc2)CC3)cc1OC` [Example 47, 5-benzenesulfonyl-4,5,6,7-tetrahydro-isoxazolo[4,5-c]pyridine-3-carboxylic acid 3,4-dimethoxy-benzyl amide], the figures for the inhibition at 10 µM in series [2] and in series [1] were 67% and 68%, respectively.
For `O=C(O)CC1(CC(=O)N2CCc3onc(C(=O)Nc4ccccc4)c3C2)CCCC1` [Example 28, {1-[2-oxo-2-(3-phenylcarbamoyl-6,7-dihydro-4H-isoxazolo[4,5-c]pyridin-5-yl)-ethyl]-cyclopentyl}acetic acid] the same measures were 44% and 55%.
As to `COCCNC(=O)c1noc2c1CN(C(=O)c1ccc(C(F)(F)F)c(F)c1)CC2` [Example 153, 5-(3-fluoro-4-(trifluoromethyl)benzoyl)-N-(2-methoxyethyl)-4,5,6,7-tetrahydroisoxazolo[4,5-c]pyridine-3-carboxamide], the inhibition at 10 µM in series [2] is -12%; in series [1] it was 37%.
The matching figures for `O=C(c1noc2c1CN(S(=O)(=O)c1ccc3ccccc3c1)CC2)N1CCN(c2nccs2)CC1` [Example 143, (5-(naphthalen-2-ylsulfonyl)-4,5,6,7-tetrahydroisoxazolo[4,5-c]pyridin-3-yl)(4-(thiazol-2-yl)piperazin-1-yl)methanone]: 44% and 29%.
Regarding `Cc1cc(C)c(S(=O)(=O)N2CCc3onc(C(=O)N4CCN(c5nccs5)CC4)c3C2)c(C)c1` [Example 141, (5-(mesitylsulfonyl)-4,5,6,7-tetrahydroisoxazolo[4,5-c]pyridin-3-yl)(4-(thiazol-2-yl)piperazin-1-yl)methanone], the figures for the inhibition at 10 µM in series [2] and in series [1] were 41% and 58%, respectively.
`Cc1cc(C)c(S(=O)(=O)N2CCc3onc(C(=O)N4CCN(CCCN(C)C)CC4)c3C2)c(C)c1` [Example 144, (4-(3-(dimethylamino)propyl)piperazin-1-yl)(5-(mesitylsulfonyl)-4,5,6,7-tetrahydroisoxazolo[4,5-c]pyridin-3-yl)methanone dihydrochloride]: the inhibition at 10 µM stood at 24% in series [2] and 21% in series [1].
For `O=C(c1noc2c1CN(S(=O)(=O)c1ccc(Cl)c(Cl)c1)CC2)N1CCC(CCN2CCCC2)CC1` [Example 147, (5-(3,4-dichlorophenylsulfonyl)-4,5,6,7-tetrahydroisoxazolo[4,5-c]pyridin-3-yl)(4-(2-(pyrrolidin-1-yl)ethyl)piperidin-1-yl)methanone] the same measures were 34% and 35%.
For `Cc1ccc(NC(=O)c2noc3c2CN(S(=O)(=O)c2ccc(C)cc2)CC3)cc1` [Example 152, N-p-tolyl-5-tosyl-4,5,6,7-tetrahydroisoxazolo[4,5-c]pyridine-3-carboxamide] the same measures were 24% and 29%.
For `Cc1ccc(NC(=O)N2CCc3onc(C(=O)NCCc4ccccc4)c3C2)cc1[N+](=O)[O-]` [Example 4, 6,7-dihydro-4H-isoxazolo[4,5-c]pyridine-3,5-dicarboxylic acid 5-[(4-methyl-3-nitro-phenyl) amide] 3-(phenethyl amide)], the “NA Uptake (rat), 10 μM, % inhibition” value in series [2] is 57%. In addition, in series [1], the “5-HT uptake (rat), 10 μM, % inhibition” value came to 45%.
With `COc1ccc(NC(=O)N2CCc3onc(C(=O)NCc4ccc(S(N)(=O)=O)cc4)c3C2)cc1` [Example 154, N^5-(4-methoxyphenyl)-N^3-(4-sulfamoylbenzyl)-6,7-dihydroisoxazolo[4,5-c]pyridine-3,5(4H)-dicarboxamide], the inhibition at 10 µM was -4% in series [2] and -8% in series [1].
The matching figures for `O=C(c1noc2c1CN(S(=O)(=O)c1cccc3ccccc13)CC2)N1CCN(c2nccs2)CC1` [Example 142, (5-(naphthalen-1-ylsulfonyl)-4,5,6,7-tetrahydroisoxazolo[4,5-c]pyridin-3-yl)(4-(thiazol-2-yl)piperazin-1-yl)methanone]: 31% and 30%.
The matching figures for `O=C(c1noc2c1CN(S(=O)(=O)c1ccc3ccccc3c1)CC2)N1CCC(CCN2CCCC2)CC1` [Example 148, (5-(naphthalen-2-ylsulfonyl)-4,5,6,7-tetrahydroisoxazolo[4,5-c]pyridin-3-yl)(4-(2-(pyrrolidin-1-yl)ethyl)piperidin-1-yl)methanone]: 49% and 67%.
For `CC(NC(=O)N1CCc2onc(C(=O)NCCc3ccccc3)c2C1)c1cccc2ccccc12` (centres unmarked) [Example 18, 6,7-dihydro-4H-isoxazolo[4,5-c]pyridine-3,5-dicarboxylic acid 5-[(1-naphthalen-1-yl-ethyl) amide]3-(phenethyl amide)], the “NA Uptake (rat), 10 μM, % inhibition” value in series [2] turned out to be 47%. In addition, the “5-HT uptake (rat), 10 μM, % inhibition” value in series [1] is on record as 42%.
Regarding `O=C(c1noc2c1CN(S(=O)(=O)c1ccccc1)CC2)N1CCN(CC=Cc2ccccc2)CC1` [Example 97, (5-benzenesulfonyl-4,5,6,7-tetrahydro-isoxazolo[4,5-c]pyridin-3-yl)-[4-(3-phenyl-allyl)-piperazin-1-yl]-methanone], the inhibition at 10 µM in series [2] worked out at 75%; in series [1], 67%.

Source of the values: patent US8048879B2, “Substituted 4,5,6,7-tetrahydro-isoxazolo[4,5-c]pyridine compounds and use thereof for producing medicaments” (Gruenenthal GmbH, priority 2005, dated 2011).
